Reference: patent publication US8076285B2, “Lysobactin amides” (Aicuris GmbH & Co. KG, priority 2006, dated 2011)
Values after ≈ are worked out from the molar mass of the structure shown. Like-named read-outs stand apart in the source and are kept apart here. *1 amine or outer side, *2 acyl side, *3 side chain or, on linkers, in order; H or OH if unused. Where a SMILES comes first, the peptide text is derived from it. Bridges are numbered along the chain shown (N, C = ends). [ ]: non-standard residue; d: D form. ξ: configuration not given here. Phe(3R-OH) = O=C([C@@H](N[*:1])[C@H](O[*:3])c1ccccc1)[*:2]; Phe(βR-NH) = O=C([C@@H](N[*:1])[C@H](N[*:3])c1ccccc1)[*:2]; Asn(3S-OH) = NC(=O)[C@@H](O)[C@H](N)C(=O)O; Leu(3R-OH) = CC(C)[C@@H](O)[C@H](N)C(=O)O; dAla(TMS) = C[Si](C)(C)C[C@@H](N)C(=O)O; d(tBuAla) = CC(C)(C)C[C@@H](N)C(=O)O; tBuAla = CC(C)(C)C[C@H](N)C(=O)O; 3Pal = N[C@@H](Cc1cccnc1)C(=O)O; aThr = C[C@H](O)[C@H](N)C(=O)O; ξIle = CC[C@H](C)C(N)C(=O)O; Nle = CCCC[C@H](N)C(=O)O; ξS = NC(CO)C(=O)O

Tests used:
[1] = amide bond; 28-membered ring; HATU/NMM; DMF; 0.0 °C
[2] = Chemical stability in alkaline aqueous solution (buffer pH 7.8, HPLC); assay type: physicochemical; conditions: aqueous neutral to basic medium (pH>7)
Procedure: Determination of the Chemical Stability in Stability Alkaline Aqueous Solution:
0.3 mg of the test substance are dissolved in a mixture of 0.25 ml of acetonitrile, 0.25 ml of DMSO and 0.5 ml of buffer of pH 7.8 (consisting of 111 mg (1 mmol) of calcium chloride, 7.91 g (100 mmol) of ammonium bicarbonate, 100 ml of acetonitrile ad 1000 ml) and left to stand at room temperature. A 5 μl aliquot is taken from the solution once an hour and analyzed by HPLC (method 57). The concentration of the test compound at time 0 h, indicated by the UV absorption (1E), is set equal to 100%, and the decrease over time is observed. At the same time, the increase in the ring-opened degradation product is observed.

[3] = tested on: Enterococcus faecalis 27159; assay type: cell-based
Procedure: (§1) Determination of the Minimum Inhibitory Concentration (MIC):
(§2) The MIC is determined in the liquid dilution test in accordance with the NCCLS guidelines. Overnight cultures of Staphylococcus aureus 133, Enterococcus faecalis 27159, E. faecium 4147 and Streptococcus pneumoniae G9a are incubated with the described test substances in a 1:2 dilution series. The MIC determination is carried out with a cell count of 10^5 microbes per ml in Isosensitest medium (Difco, Irvine/USA), with the exception of S. pneumoniae which is tested in BHI broth (Difco, Irvine/USA) with 10% bovine serum with a cell count of 10^6 microbes per ml. The cultures are incubated at 37° C. for 18-24 hours, S. pneumoniae in the presence of 10% CO2.
(§3) The MIC is defined as the lowest concentration of each substance at which no visible bacterial growth occurs any longer. The MIC values are reported in μg/ml.

[4] = tested on: Staphylococcus aureus 133; assay type: cell-based
Procedure: as §1, §2, §3

[5] = tested on: Streptococcus pneumoniae G9a; assay type: cell-based
Procedure: as §1, §2, §3

[6] = Isosensitest medium, 10^5 microbes per ml, 37° C., 18-24 hours

MIC E. faecalis ICB 27159 [3]; 27159 | MIC S. aureus 133 [4]; 133 | MIC S. pneumoniae G9a ([5]; G9a) | Molecule | ring closure, crude yield [1] | hydrolysis (opening of the lactone) in aqueous medium [2] | MIC E. faecalis ICB 27159 [3, 6] | MIC S. aureus 133 [4, 6] | MIC S. pneumoniae G9a ([5]; BHI broth with 10% bovine serum, 10^6 microbes per ml, 37° C., 18-24 hours, 10% CO2)
– | – | – | [(3R)-N^2-(Benzyloxycarbonyl)-3-amino-L-phenylalanyl]-[(3R)-3-hydroxy-L-leucyl]-L-leucyl-D-arginyl-L-isoleucyl-L-allothreonyl-glycyl-L-allothreonyl-L-aserinate C^1.9-N^3.1-lactam trifluoroacetate | 86% | – | – | – | –
0.5 µg/mL (≈ 0.392 µM) | 0.5 µg/mL (≈ 0.392 µM) | 0.063 µg/mL (≈ 0.0494 µM) | CC[C@H](C)[C@@H]1NC(=O)[C@@H](CCCNC(=N)N)NC(=O)[C@H](CC(C)C)NC(=O)[C@H]([C@H](O)C(C)C)NC(=O)[C@@H](NC(=O)[C@H](CC(C)C)NC(=O)[C@H](N)CC(C)C)[C@@H](c2ccccc2)OC(=O)[C@H](CO)NC(=O)[C@H]([C@H](O)C(N)=O)NC(=O)CNC(=O)[C@H]([C@H](C)O)NC1=O [Lysobactin, lysobactin] (H-[dL]L[Phe(3R-OH)][Leu(3R-OH)]L[dR]I[aThr]G[Asn(3S-OH)]S; ester 3-C (inferred); N-terminus assumed) | – | hydrolyzed in an aqueous neutral to basic medium (pH>7) within days | – | – | –
1 µg/mL (≈ 0.793 µM) | 0.25 µg/mL (≈ 0.198 µM) | 0.5 µg/mL (≈ 0.397 µM) | CC[C@H](C)C1NC(=O)[C@H]([C@H](O)C(C)C)NC(=O)[C@@H](NC(=O)[C@H](CC(C)(C)C)NC(=O)[C@H](N)CC(C)(C)C)[C@@H](c2ccccc2)NC(=O)C(CO)NC(=O)[C@H](CO)NC(=O)CNC(=O)[C@H]([C@H](C)O)NC(=O)[C@H]([C@@H](C)CC)NC(=O)[C@@H](CCCNC(=N)N)NC1=O (stereo partly drawn) [Example 35, [3-tert-Butyl-D-alanyl]-[3-tert-butyl-L-alanyl]-[(3R)-3-amino-L-phenylalanyl]-[(3R)-3-hydroxy-L-leucyl]-L-isoleucyl-D-arginyl-L-isoleucyl-L-allothreonyl-glycyl-L-seryl-L-serine C^1.11-N^3.3-lactam bistrifluoroacetate] (H-[d(tBuAla)][tBuAla][Phe(βR-NH)][Leu(3R-OH)][ξIle][dR]I[aThr]GS[ξS]; lactam 3-C) | – | – | – | – | –
– | – | – | CCCC[C@@H]1NC(=O)[C@H]([C@H](O)C(C)C)NC(=O)[C@@H](NC(=O)[C@H](Cc2cccnc2)NC(=O)[C@H](N)C[Si](C)(C)C)[C@@H](c2ccccc2)NC(=O)C(CO)NC(=O)[C@H](C)NC(=O)CNC(=O)[C@H]([C@H](C)O)NC(=O)[C@H]([C@@H](C)CC)NC(=O)[C@@H](CCCNC(=N)N)NC1=O (stereo partly drawn) [Example 41, [3-Trimethylsilyl-D-alanyl]-[3-(3-pyridyl)-L-alanyl]-[(3R)-3-amino-L-phenylalanyl]-[(3R)-3-hydroxy-L-leucyl]-L-norleucyl-D-arginyl-L-isoleucyl-L-allothreonyl-glycyl-L-alanyl-L-serine C^1.11-N^3.3-lactam tristrifluoroacetate] (H-[dAla(TMS)][3Pal][Phe(βR-NH)][Leu(3R-OH)][Nle][dR]I[aThr]GA[ξS]; lactam 3-C) | – | – | 2 µg/mL (≈ 1.56 µM) | 0.25 µg/mL (≈ 0.195 µM) | 0.25 µg/mL (≈ 0.195 µM)
1 µg/mL (≈ 0.802 µM) | 0.5 µg/mL (≈ 0.401 µM) | 0.25 µg/mL (≈ 0.201 µM) | CC[C@H](C)[C@@H]1NC(=O)[C@@H](CCCNC(=N)N)NC(=O)[C@H](CC(C)C)NC(=O)[C@H]([C@H](O)C(C)C)NC(=O)[C@@H](NC(=O)[C@H](CC(C)(C)C)NC(=O)[C@H](N)CC(C)(C)C)[C@@H](c2ccccc2)NC(=O)C(CO)NC(=O)[C@H](CO)NC(=O)CNC(=O)[C@H](CO)NC1=O (stereo partly drawn) [Example 23, [3-tert-Butyl-D-alanyl]-[3-tert-butyl-L-alanyl]-[(3R)-3-amino-L-phenylalanyl]-[(3R)-3-hydroxy-L-leucyl]-L-leucyl-D-arginyl-L-isoleucyl-L-seryl-glycyl-L-seryl-L-serine C^1.11-N^3.3-lactam bistrifluoroacetate] (H-[d(tBuAla)][tBuAla][Phe(βR-NH)][Leu(3R-OH)]L[dR]ISGS[ξS]; lactam 3-C) | – | – | – | – | –
0.5 µg/mL (≈ 0.383 µM) | 0.25 µg/mL (≈ 0.192 µM) | 0.125 µg/mL (≈ 0.0958 µM) | CC[C@H](C)[C@@H]1NC(=O)[C@@H](CCCNC(=N)N)NC(=O)[C@H](CC(C)C)NC(=O)[C@H]([C@H](O)C(C)C)NC(=O)[C@@H](NC(=O)[C@H](CC(C)(C)C)NC(=O)[C@H](N)CC(C)(C)C)[C@@H](c2cccnc2)NC(=O)C(CO)NC(=O)C([C@H](O)C(N)=O)NC(=O)CNC(=O)[C@H]([C@H](C)O)NC1=O (stereo partly drawn) [Example 44, [3-tert-Butyl-D-alanyl]-[3-tert-butyl-L-alanyl]-[(3R)-3-amino-3-(pyridin-3-yl)-L-alanyl]-[(3R)-3-hydroxy-L-leucyl]-L-leucyl-D-arginyl-L-isoleucyl-L-allothreonyl-glycyl-[(3S)-3-hydroxy-L-asparaginyl]-L-serine C^1.11-N^3.3-lactam tristrifluoroacetate] | – | – | – | – | –
